The target in the test is T1, CqsS (Vibrio cholerae serotype O1, UniProt Q9KM66).
T1 construct: endogenous in cells; host or cells: V. cholerae WN1102 (ΔcqsA ΔluxQ/pBB1), derived from C6706str2
In words: cell-based. Conditions: for Light production: strain WN1102; for RLU: Strain WN1102.

Results on 1 molecule are retold here after article PMC5467912, “Asymmetric regulation of quorum-sensing receptors drives autoinducer-specific gene expression programs in Vibrio cholerae” (PLoS Genetics, 2017).

Where “and” joins values, the source holds several entries; their conditions need not be identical. Identical values can stand only once.

T1 sequence (Q9KM66 whole entry, looked up): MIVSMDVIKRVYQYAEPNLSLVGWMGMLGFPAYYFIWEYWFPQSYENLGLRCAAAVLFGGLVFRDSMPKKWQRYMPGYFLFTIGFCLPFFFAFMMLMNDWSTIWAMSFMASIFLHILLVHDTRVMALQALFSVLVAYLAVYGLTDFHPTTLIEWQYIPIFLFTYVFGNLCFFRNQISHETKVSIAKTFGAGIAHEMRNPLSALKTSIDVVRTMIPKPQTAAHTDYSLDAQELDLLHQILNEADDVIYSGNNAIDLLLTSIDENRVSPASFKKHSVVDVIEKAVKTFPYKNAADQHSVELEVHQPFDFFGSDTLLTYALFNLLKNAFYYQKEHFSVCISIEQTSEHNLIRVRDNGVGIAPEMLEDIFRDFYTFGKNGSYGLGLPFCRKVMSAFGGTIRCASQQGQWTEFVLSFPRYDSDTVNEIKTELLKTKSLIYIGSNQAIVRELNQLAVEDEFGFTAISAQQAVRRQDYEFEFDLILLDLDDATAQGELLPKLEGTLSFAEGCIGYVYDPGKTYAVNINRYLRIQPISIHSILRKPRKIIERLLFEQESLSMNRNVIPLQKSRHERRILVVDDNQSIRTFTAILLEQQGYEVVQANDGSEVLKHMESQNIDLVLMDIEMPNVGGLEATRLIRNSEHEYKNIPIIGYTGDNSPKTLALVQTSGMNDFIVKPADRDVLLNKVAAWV

Turning to `CCCCCCCCCC(=O)[C@@H](O)CC` [CAI-1, (S)-3-hydroxytridecan-4-one], the Light production is, setting by setting: (Agonist 0.0119209 nM) 12889 RLU and 8888.9 RLU and 6804.1 RLU; (Agonist 0.0476837 nM) 14371 RLU and 11556 RLU and 14048 RLU; (Agonist 0.190735 nM) 19162 RLU and 15751 RLU and 14725 RLU; (Agonist 0.762939 nM) 27416 RLU and 24171 RLU and 21376 RLU; (Agonist 3.05176 nM) 42278 RLU and 41455 RLU and 42909 RLU; (Agonist 12.207 nM) 141302 RLU and 122637 RLU and 126432 RLU. Besides, the Light production was 2056727 RLU and 1989392 RLU and 2067742 RLU (Agonist 48.8281 nM); 21777960 RLU and 20597350 RLU and 20387370 RLU (Agonist 195.312 nM); 68306990 RLU and 63315740 RLU and 60445960 RLU (Agonist 781.25 nM); 107684000 RLU and 96526460 RLU and 89440220 RLU (Agonist 3125 nM); 110460000 RLU and 105858400 RLU and 100769600 RLU (Agonist 12500 nM); 108923600 RLU and 92244980 RLU and 92565550 RLU (Agonist 50000 nM). Moreover, the RLU is 6.03E+03 RLU and 5.88E+03 RLU and 4.06E+03 RLU (agonist 0.0119209 nM); 1.26E+04 RLU and 1.57E+04 RLU and 1.42E+04 RLU (agonist 0.190735 nM); 2.01E+04 RLU and 2.32E+04 RLU and 2.34E+04 RLU (agonist 0.762939 nM); 2.95E+04 RLU and 3.11E+04 RLU and 2.71E+04 RLU (agonist 3.05176 nM); 3.67E+04 RLU and 5.35E+04 RLU and 5.22E+04 RLU (agonist 12.207 nM); 1.20E+05 RLU and 1.71E+05 RLU and 1.56E+05 RLU (agonist 48.8281 nM). In addition, the RLU runs as follows: (agonist 195.312 nM) 4.96E+06 RLU and 5.24E+06 RLU and 3.77E+06 RLU; (agonist 781.25 nM) 5.10E+07 RLU and 6.40E+07 RLU and 5.48E+07 RLU; (agonist 3125 nM) 1.12E+08 RLU and 1.35E+08 RLU and 1.31E+08 RLU; (agonist 12500 nM) 1.34E+08 RLU and 1.62E+08 RLU and 1.58E+08 RLU; (agonist 50000 nM) 1.28E+08 RLU and 1.53E+08 RLU and 1.57E+08 RLU.
